# From US9573911B2, “Diphosphate mimetics and uses thereof” (President and Fellows of Harvard College, priority 2011, dated 2017)
# Tests used:
# Experiment in all cases: Kinase profiling, Invitrogen Z'-LYTE
# Format in all cases: biochemical
# Settings in all cases: Table 2
# MAPKAPK5 (PRAK) = molecular target: T1, MAPKAPK5 (PRAK) (Homo sapiens, UniProt Q8IW41)
# T1 construct: purchased Invitrogen
# T1 sequence (Q8IW41 1-473): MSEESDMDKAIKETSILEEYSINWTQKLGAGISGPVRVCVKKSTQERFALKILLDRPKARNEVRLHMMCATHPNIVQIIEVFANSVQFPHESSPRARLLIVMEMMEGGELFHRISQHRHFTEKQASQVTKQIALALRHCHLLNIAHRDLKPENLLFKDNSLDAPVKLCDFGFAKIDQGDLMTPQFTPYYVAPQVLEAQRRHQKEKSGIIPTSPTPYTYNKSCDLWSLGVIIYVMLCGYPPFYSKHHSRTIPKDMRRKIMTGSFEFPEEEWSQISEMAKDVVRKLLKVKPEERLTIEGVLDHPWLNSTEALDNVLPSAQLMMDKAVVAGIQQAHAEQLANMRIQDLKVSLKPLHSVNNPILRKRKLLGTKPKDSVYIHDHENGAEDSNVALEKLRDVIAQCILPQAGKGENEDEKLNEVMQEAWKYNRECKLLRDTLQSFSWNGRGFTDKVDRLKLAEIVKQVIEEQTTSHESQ
# Method: (§1) Kinase profiling was conducted using Invitrogen Z'-LYTE screening protocol and assay conditions found at www.invitrogen.com. Compound (2) inhibited PLK1 completely at 5 μM.
# RPS6KA2 (RSK3) = molecular target: T2, RPS6KA2 (RSK3) (Homo sapiens, UniProt Q15349)
# T2 construct: purchased Invitrogen
# Method: as §1
# EPHA1 = molecular target: T3, EPHA1 (Homo sapiens, UniProt P21709)
# T3 construct: purchased Invitrogen
# T3 sequence (P21709 26-976): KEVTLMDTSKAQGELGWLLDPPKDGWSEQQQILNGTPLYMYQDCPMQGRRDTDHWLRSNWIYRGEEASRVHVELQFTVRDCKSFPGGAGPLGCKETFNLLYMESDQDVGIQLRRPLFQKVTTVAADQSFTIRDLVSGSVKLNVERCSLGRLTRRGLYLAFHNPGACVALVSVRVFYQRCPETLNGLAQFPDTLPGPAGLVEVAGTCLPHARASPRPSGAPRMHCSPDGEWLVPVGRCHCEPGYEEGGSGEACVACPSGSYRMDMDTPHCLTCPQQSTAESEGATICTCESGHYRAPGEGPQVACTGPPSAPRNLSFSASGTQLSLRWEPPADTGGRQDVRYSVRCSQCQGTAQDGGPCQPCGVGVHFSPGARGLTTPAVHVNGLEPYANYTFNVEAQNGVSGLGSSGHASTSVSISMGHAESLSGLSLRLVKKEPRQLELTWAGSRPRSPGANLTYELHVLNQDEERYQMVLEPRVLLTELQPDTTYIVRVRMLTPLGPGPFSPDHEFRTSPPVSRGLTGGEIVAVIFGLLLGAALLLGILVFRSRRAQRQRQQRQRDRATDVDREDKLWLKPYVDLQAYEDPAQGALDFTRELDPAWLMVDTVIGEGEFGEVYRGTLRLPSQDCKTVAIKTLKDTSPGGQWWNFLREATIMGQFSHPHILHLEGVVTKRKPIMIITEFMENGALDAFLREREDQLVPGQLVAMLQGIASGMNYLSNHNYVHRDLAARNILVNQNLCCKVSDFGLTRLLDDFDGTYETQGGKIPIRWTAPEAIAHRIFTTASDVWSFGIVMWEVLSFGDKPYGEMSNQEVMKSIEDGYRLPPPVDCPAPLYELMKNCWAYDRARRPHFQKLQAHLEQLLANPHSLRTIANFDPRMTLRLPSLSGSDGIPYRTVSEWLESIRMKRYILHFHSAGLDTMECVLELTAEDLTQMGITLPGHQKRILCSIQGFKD
# Method: as §1
# PRKD1 (PKC mu) = molecular target: T4, PRKD1 (PKC mu) (Homo sapiens, UniProt Q15139)
# T4 construct: purchased Invitrogen
# T4 sequence (Q15139 1-912): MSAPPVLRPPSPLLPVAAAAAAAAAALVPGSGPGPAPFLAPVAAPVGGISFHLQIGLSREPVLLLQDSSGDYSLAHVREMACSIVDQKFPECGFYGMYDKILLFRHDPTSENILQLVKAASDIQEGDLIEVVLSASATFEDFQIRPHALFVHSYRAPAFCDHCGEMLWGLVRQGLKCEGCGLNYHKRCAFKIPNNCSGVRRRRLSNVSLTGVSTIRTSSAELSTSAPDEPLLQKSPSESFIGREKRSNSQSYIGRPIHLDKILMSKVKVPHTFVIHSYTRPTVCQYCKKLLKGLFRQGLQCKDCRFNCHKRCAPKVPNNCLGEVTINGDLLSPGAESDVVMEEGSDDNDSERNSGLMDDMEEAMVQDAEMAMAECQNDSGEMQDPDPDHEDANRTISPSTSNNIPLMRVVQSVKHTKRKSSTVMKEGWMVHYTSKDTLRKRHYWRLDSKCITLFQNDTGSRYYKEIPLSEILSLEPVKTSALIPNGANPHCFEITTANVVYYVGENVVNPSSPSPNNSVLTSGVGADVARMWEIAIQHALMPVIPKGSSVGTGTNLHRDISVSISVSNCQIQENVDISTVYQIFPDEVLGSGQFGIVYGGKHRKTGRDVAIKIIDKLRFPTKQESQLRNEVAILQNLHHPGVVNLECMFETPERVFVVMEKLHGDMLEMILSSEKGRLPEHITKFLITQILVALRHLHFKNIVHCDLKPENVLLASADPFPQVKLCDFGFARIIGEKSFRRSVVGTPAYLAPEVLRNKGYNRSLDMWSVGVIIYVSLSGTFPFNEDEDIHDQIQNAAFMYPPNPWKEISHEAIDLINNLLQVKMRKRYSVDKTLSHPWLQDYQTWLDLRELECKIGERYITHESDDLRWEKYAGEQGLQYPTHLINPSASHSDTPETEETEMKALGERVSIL
# Method: as §1
# MARK2 = molecular target: T5, MARK2 (Homo sapiens, UniProt Q7KZI7)
# T5 construct: purchased Invitrogen
# Method: as §1
# RET = molecular target: T6, RET (Homo sapiens, UniProt P07949)
# T6 construct: purchased Invitrogen
# Method: as §1
# T2 sequence (Q15349 whole entry): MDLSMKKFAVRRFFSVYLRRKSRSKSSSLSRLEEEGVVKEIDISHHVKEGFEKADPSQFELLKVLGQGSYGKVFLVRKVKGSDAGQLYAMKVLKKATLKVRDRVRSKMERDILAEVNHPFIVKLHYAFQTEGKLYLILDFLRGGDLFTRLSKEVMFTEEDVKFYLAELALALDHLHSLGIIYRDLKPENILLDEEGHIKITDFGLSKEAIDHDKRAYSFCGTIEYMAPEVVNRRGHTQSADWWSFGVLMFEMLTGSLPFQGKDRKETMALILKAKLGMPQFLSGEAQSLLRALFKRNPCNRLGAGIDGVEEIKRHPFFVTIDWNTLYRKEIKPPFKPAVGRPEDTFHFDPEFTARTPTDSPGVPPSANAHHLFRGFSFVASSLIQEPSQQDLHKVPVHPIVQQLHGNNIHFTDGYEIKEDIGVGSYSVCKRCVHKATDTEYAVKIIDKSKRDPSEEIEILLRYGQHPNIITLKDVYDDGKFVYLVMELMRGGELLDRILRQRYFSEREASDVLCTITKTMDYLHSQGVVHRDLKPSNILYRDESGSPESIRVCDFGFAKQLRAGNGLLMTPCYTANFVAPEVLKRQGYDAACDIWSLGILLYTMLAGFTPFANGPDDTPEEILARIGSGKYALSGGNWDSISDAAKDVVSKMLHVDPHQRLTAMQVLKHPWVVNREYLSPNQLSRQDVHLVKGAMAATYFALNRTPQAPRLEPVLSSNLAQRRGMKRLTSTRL
# T6 sequence (P07949 29-1114): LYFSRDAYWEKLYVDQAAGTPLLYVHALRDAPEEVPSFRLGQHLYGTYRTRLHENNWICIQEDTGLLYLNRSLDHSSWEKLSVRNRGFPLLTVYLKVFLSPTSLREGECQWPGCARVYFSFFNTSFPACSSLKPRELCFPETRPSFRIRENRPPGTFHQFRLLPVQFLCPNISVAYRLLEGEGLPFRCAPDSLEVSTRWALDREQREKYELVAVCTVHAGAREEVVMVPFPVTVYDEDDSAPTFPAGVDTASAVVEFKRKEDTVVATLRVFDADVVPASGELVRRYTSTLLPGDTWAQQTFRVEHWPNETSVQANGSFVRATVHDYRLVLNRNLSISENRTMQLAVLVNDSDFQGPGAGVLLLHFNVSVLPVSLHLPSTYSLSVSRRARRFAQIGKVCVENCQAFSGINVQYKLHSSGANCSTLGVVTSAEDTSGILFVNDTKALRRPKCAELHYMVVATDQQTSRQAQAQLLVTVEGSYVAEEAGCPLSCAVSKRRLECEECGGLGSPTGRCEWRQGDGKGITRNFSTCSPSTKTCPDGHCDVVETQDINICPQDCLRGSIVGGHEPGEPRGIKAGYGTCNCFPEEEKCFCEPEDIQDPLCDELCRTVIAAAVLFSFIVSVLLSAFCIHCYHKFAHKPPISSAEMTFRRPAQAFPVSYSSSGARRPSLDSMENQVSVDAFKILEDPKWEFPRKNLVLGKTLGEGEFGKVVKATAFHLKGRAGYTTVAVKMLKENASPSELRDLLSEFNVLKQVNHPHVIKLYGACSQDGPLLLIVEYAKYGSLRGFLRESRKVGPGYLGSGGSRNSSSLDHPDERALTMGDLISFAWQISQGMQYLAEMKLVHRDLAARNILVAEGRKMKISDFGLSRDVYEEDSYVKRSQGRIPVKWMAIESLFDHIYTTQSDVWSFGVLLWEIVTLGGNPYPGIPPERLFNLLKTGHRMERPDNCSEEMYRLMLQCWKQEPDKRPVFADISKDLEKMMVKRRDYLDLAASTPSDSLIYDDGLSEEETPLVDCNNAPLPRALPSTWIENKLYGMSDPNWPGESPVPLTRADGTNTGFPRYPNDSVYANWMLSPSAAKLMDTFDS
# T5 sequence (Q7KZI7 whole entry): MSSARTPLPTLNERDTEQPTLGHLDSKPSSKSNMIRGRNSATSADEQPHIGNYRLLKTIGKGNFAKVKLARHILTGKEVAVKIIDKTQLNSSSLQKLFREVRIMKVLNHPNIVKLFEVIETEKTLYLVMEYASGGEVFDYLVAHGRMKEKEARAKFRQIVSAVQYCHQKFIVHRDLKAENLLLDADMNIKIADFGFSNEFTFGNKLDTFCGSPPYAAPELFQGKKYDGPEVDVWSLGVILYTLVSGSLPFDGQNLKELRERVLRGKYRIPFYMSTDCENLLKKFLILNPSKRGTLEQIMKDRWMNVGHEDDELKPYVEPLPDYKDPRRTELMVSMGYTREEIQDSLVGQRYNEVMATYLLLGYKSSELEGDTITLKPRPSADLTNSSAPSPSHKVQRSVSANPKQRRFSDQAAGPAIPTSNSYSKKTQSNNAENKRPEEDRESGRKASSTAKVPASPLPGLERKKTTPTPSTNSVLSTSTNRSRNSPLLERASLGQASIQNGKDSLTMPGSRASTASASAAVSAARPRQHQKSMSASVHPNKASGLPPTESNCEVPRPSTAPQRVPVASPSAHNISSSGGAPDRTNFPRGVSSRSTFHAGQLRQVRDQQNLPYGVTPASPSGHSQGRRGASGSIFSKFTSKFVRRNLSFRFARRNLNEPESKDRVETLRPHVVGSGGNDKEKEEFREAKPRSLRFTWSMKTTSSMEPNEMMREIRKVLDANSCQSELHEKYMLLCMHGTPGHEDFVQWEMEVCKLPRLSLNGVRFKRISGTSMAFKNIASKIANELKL
smiles,measurement,setting,value
COc1ccc(OC(=O)n2c(=O)oc3cc(C(C)=O)ccc32)cc1 [Compound 2],% Inhibition Point 1,MAPKAPK5 (PRAK),−146%
same,% Inhibition Point 2,MAPKAPK5 (PRAK),−147%
same,% Inhibition mean,MAPKAPK5 (PRAK),−146%
same,% Inhibition Point 1,RPS6KA2 (RSK3),−266%
same,% Inhibition Point 2,RPS6KA2 (RSK3),−267%
same,% Inhibition mean,RPS6KA2 (RSK3),−267%
same,% Inhibition Point 1,EPHA1,−62%
same,% Inhibition Point 2,EPHA1,−107%
same,% Inhibition mean,EPHA1,−85%
same,% Inhibition Point 1,PRKD1 (PKC mu),−137%
same,% Inhibition Point 2,PRKD1 (PKC mu),−151%
same,% Inhibition mean,PRKD1 (PKC mu),−144%
same,% Inhibition Point 1,MARK2,−172%
same,% Inhibition Point 2,MARK2,−157%
same,% Inhibition mean,MARK2,−164%
same,% Inhibition Point 1,RET,−91%
same,% Inhibition Point 2,RET,−70%
same,% Inhibition mean,RET,−80%
